Source: patent publication US7605179B2, “Napthoquinone derivatives as inhibitors of tau aggregation for the treatment of alzheimer's and related neurodegenerative disorders” (Wista Laboratories Ltd., priority 2001, dated 2009)

Tests used:
cultured CNS neurones = conditions: cited from earlier work
tau-tau binding [1] = conditions: WO 96/30766 FIGS. 23 and 24; 1 represents binding equivalent to that in the absence of compound; cited from earlier work
fibroblast cells (3T6) = assay: Toxicity in the T40/12 kD cell assay (lactate dehydrogenase kit); assay type: cell-based; conditions: for LD50: cellular LD50, cell numbers after 24 hrs exposure; for Rxindx: therapeutic index, RxIndx=LD50/B50
Procedure: Toxicity of the compounds described above was assessed in the T40/12 kD cell assay used to assess activity. Toxicity was measured by cell numbers after 24 hrs exposure to the compound using a lactate dehydrogenase assay kit TOX-7(Sigma Biosciences) according to the manufacturer's instructions after lysis of remaining cells. Alternatively a kit from Promega UK (CytoTox 96) was used, again according to the manufacturer's instructions.

tau-tau aggregation = target: T1, tau-tau aggregation (Homo sapiens, UniProt P10636); assay: Cell-based assay II ('ssK40/25 kD'), proteolytic processing of tau; conditions: concentrations of 1-2 μM
T1 construct: membrane-targeted tau (sstau190-441, “ssK40”); expressed in transfected cells
T1 sequence (P10636 507-758): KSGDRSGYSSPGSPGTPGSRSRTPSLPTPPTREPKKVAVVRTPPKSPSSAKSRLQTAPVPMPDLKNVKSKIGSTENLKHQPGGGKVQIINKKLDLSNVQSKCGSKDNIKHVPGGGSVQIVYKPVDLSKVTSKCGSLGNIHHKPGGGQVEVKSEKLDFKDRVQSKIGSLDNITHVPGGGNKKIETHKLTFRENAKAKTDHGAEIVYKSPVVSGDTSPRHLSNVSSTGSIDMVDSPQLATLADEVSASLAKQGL
Description: The process is described in more detail in prior filed unpublished application GB 0100119.7. […] These cleavage sites correspond to the known boundaries of the PHF-core domain, indicate that their generation within the cell depends on PHF-like tau aggregation through an antiparallel phase-shifted alignment of the repeat domain.
This is shown schematically in FIG. 7. When expression of full-length tau (T40) is activated under control of an inducible promoter in cells which constitutively express the membrane-targeted ssK40 fragment, T40 is processed proteolytically to give rise to a K40 fragment (N-terminal truncation at ˜αα 185), a K30 fragment (C-terminal truncation ˜αα 390) and a K25 fragment (N-terminal truncation at ˜αα 295).

tau-tau binding [2] = target: tau-tau binding (Homo sapiens, UniProt P10636); assay: Cell-based assay I ('T40/12 kD'), production of the 12 kD fragment; conditions: for Ki: apparent KI calculated from T40/12 kD cell data, assumes intracellular tau 500 nM, tau-tau Kd 22 nM; for IC50: concentration at which production of the 12 kD band from full-length tau is reduced to 50%, read-out: B50; for activity as inhibitor of tau-tau aggregation: T40/12 kD cell assay
Chain of tau-tau binding (Homo sapiens, UniProt P10636) (P10636 1-441 isoform P10636-8): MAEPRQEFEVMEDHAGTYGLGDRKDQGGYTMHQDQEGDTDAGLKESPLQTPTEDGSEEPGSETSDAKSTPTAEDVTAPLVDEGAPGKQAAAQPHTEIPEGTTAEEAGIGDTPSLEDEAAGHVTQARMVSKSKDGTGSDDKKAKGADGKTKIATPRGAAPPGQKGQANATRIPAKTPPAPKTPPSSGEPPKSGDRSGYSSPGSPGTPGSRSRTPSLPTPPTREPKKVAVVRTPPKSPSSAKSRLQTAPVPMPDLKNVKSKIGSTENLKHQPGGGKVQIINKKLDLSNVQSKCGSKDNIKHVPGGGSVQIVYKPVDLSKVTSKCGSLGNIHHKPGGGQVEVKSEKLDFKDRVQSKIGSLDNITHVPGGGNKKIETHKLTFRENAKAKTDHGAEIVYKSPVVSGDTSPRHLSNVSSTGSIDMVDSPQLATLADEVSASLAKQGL
Procedure: Production of the 12 kD fragment can be blocked in a dose-dependent manner by tau-aggregation inhibitors. Indeed the quantitation of inhibitory activity of compounds with respect to proteolytic generation of the 12 kD fragment within cells can be described entirely in terms of the same parameters which describe inhibition of tau-tau binding in vitro. That is, extent of proteolytic generation of the 12 kD fragment within cells is determined entirely by the extent to tau-tau binding through the repeat domain. The availability of the relevant proteases within the cell is non-limiting.
The process is described in more detail in prior filed unpublished application GB 0101049.5.
The observed cell data for production of the 12 kD band can be fitted closely (i.e. observed vs. predicted correlation coefficient >0.9), to a standard function describing inhibition of tau-tau binding in vitro. To obtain this fit, two assumptions need to be made, which are consistent with results from other cell-based and in vitro studies: • 1) the intracellular concentration of tau is approximately 500 nM; • 2) the tau-tau binding affinity is 22 nM.
When these assumptions are made, the function: Activity=[tau]([tau]+Kd*(1+[inhibitor]/KI)) can be solved by standard numerical methods to derive a value for apparent KI. Comparison with values observed for tau-tau binding in vitro at a tau concentration of 500 nM, where the Kd value for tau-tau binding is known to be 22 nM confirm that the sole determinant of production of the proteolytically stable core tau unit of the PHF within the cell is simply the extent of tau-tau binding.
A further parameter, B50, has been established in respect of compounds exemplified herein. The B50 value is the determined concentration of test compound used in the cell assay at which relative production of the 12 kD band from full-length tau was reduced to 50% of that observed in the absence of the compound. This provides an indication of the tissue concentration which would be required to achieve the corresponding activity in vivo. In general there is an approximately linear relationship between apparent KI value and B50 value, which can be used to derive the KI value: B50(μM)=0.0217×KI(nM) Cell-based Assay II(‘ssK40/25 kD’)

tau-tau binding [3] = assay: In vitro tau-tau binding assay (WO 96/30766)
Procedure: FIG. 5 is a schematic representation of the in vitro aggregation assay of WO 96/30766 in which binding of two truncated units is measured. The species terminating at […] (“a”) is first coated on the ELISA plate (in sodium carbonate buffer: 50 mM, pH 9.6). Next, a second truncated tau species terminating at […] (“e”) is incubated in various buffer conditions. […] This is described in detail in WO 96/30766. Briefly, a fragment of tau corresponding to the core repeat domain, which has been adsorbed to a solid phase substrate, is able to capture soluble full-length tau and bind tau with high affinity. This association confers stability against proteolytic digestion of the aggregated tau molecules. The process is self-propagating, and can be blocked selectively by prototype pharmaceutical agents ([…]., et al. (1996), loc. cit). The assay is shown schematically in FIG. 5.

tau protein = conditions: 200 μM; cited from earlier work
tau-tubulin binding = tau-tubulin binding (Homo sapiens, UniProt P10636); assay: In vitro tau-tubulin binding; conditions: at concentrations up to 500 μM (2500:1 molar ratio with respect to tau)
Chain of tau-tubulin binding (P10636 whole entry): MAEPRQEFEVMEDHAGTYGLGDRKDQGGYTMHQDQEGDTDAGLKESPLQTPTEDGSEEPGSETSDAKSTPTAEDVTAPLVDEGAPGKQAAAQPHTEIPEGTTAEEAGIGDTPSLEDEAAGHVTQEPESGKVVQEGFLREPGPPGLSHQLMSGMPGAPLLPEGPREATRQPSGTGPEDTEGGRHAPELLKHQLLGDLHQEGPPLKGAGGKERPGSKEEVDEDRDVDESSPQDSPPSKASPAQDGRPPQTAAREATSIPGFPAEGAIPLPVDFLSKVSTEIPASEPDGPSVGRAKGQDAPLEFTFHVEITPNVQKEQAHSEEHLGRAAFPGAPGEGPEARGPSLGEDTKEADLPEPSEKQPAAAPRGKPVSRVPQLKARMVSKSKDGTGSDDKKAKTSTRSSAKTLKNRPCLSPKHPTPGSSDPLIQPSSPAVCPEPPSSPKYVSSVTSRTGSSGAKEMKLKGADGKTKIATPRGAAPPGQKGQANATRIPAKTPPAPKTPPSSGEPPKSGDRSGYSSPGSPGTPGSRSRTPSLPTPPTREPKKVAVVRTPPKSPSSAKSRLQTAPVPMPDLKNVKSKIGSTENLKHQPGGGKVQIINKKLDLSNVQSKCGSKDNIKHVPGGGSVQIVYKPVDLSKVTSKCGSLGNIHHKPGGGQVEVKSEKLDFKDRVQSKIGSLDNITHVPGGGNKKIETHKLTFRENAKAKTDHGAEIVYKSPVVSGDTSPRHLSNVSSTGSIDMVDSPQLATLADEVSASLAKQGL

Compound	LD50 (fibroblast cells (3T6)) [µM]	Rxindx (fibroblast cells (3T6))	Ki (tau-tau binding [2]) [nM]	IC50 (tau-tau binding [2]) [nM]	activity as inhibitor of tau-tau aggregation (tau-tau binding [2])	other results
CC1=C(C/C=C(\C)CCC[C@H](C)CCC[C@H](C)CCCC(C)C)C(=O)c2ccccc2C1=O [Compound K1, 2-methyl-3-phytyl-1,4-naphthoquinone]						survival promoting effects (cultured CNS neurones; in the range 10 nM—1 μM): prominent survival promoting effects
CC1=CC(=O)c2ccccc2C1=O [Compound K3, 2-methyl-1,4-naphthoquinone]	44.92	16.17	128	2780		survival promoting activity relative to vitamins K1 and K2 (cultured CNS neurones; only at 1 μM): ~10%; ranking value of inhibitory properties (tau-tau binding [1]): 1.042; conversion K40→K25 relative to that seen without K3 (tau-tau aggregation): about ½; conversion of T40→K25 relative to that seen without K3 (tau-tau aggregation): about ¼; conversion of T40→K40 relative to that seen without K3 (tau-tau aggregation; inferred): about ½; activity in the in vitro assay (tau-tau binding [3]): did not show activity; effect on tau protein phosphorylation (tau protein): prominent dephosphorylation of tau protein
CC(C)=CCC1=C(O)C(=O)c2ccccc2C1=O [DH1]	100.97	9.07	513	11100	weak activity	
O=C(O)c1cc(O)c2ccccc2c1O [DH5]	34.29	13.39	118	2560	had activity	
CC(=O)Oc1cc(C)c(OC(C)=O)c2ccccc12 [DH9]	13.09	4.75	127	2760	highly active	
CC1=C(C)C(=O)c2ccccc2C1=O [DH10, 2,3-dimethyl-1,4-naphthoquinone]	66.71	13.91	221	4800		
CC(=O)Oc1c(C)c(C)c(OC(C)=O)c2ccccc12 [DH11]	12.13	0.83	674	14600	reduced activity	
Cc1cc(OS(=O)(=O)O)c2ccccc2c1OS(=O)(=O)O [DH13]	30.90	5.41	263	5710	intermediate in activity	
menaquinone [Compound K2]						ranking value of inhibitory properties (tau-tau binding [1]): 0.674; inhibition of tau-tubulin binding in vitro (tau-tubulin binding): does not inhibit; Ki (tau-tau binding [3]; for values less than 100 μM, read-out: apparent KI value in vitro): 942 nM
